Assays:
[1] = tested on: serotonin reuptake and norepinephrine reuptake; settings: cited from earlier work; for selectivity for serotonin reuptake inhibition than norepinephrine reuptake inhibition: higher selectivity for serotonin reuptake
[2] = tested on: Major depressive disorder (MDD); experiment: weekly MADRS-s self-assessment of MDD subjects on a pharmacologic antidepressant agent combined with tDCS sessions (Example 2); assay type: in vivo, human; settings: each agent combined with tDCS; Week 6; change in MADRS-s, FIG. 7
Text: In this example, a subject completed a MADRS-s questionnaire at baseline (defined as a time preceding initiation of neurostimulation) to determine a starting measurement to be used in an assessment of treatment efficacy. Ideally, baseline measures were made close to the period of time in which the first neurostimulation session began. The subject completed the same MADRS-s questionnaire weekly during a period of ongoing treatment comprising administering of a prescribed pharmacologic antidepressant agent and delivery to the subject of plurality tDCS sessions. […]
Subjects were provided with a tDCS neurostimulation device, instructions of use, and an program capable of being run on a handheld electronic device which provided instructions, recorded responses to various questionnaires completed by the subject, and recorded information regarding the tDCS stimulation sessions completed by the user. Amongst the tDCS stimulation session information recorded was the date of each session completed, the time of day of each completed session, the duration of each completed session, the intensity of electrical stimulation in each session, the latency from the most recently completed session to the previous session.
Subjects completed a MADSR-s assessment at baseline prior to their first tDCS session. […] If the dosage had changed, the subject recorded the extent of the change. […]

Structure (SMILES)	potency for norepinephrine reuptake inhibition than serotonin reuptake inhibition [1]	effectiveness in improving symptoms of depression compared to fluoxetine [2]	selectivity for serotonin reuptake inhibition than norepinephrine reuptake inhibition [1]
CCN(CC)C(=O)[C@@]1(c2ccccc2)C[C@H]1CN [Levomilnacipran]	2 fold		
CN[C@H]1CC[C@@H](c2ccc(Cl)c(Cl)c2)c2ccccc21 [Sertraline]		significantly better	
CN(C)CC(c1ccc(O)cc1)C1(O)CCCCC1 (stereo not drawn) [desvenlafaxine]			10 fold
CCN(CC)C(=O)C1(c2ccccc2)CC1CN (stereo not drawn) [Milnacipran]	3 fold		
CNCC[C@H](Oc1cccc2ccccc12)c1cccs1 [duloxetine]			10 fold
COc1ccc(C(CN(C)C)C2(O)CCCCC2)cc1 (stereo not drawn) [Venlafaxine]		approaching significance	
